Results taken from US6833456B2, “Indolyl-urea derivatives of thienopyridines useful as antiangiogenic agents, and methods for their use” (Agouron Pharmaceuticals, Inc., priority 2002, dated 2004).

Target: T1, unphosphorylated VEGF-R2Δ50 (FLVK) (Homo sapiens, UniProt P35968, DEL940-989/E990V)
T1 construct: VEGF-R2Δ50 contains residues 806-939 and 990-1171; made in house; host or cells: baculovirus/insect cell system
Experiment: VEGF-R2 coupled spectrophotometric assay, unphosphorylated construct (FLVK)
Type: biochemical
Conditions: for inhibition at 0.05 µM: percent inhibition at 50 nM
Description: This construct determines the ability of a test compound to inhibit tyrosine kinase activity. A construct (VEGF-R2Δ50) of the cytosolic domain of human vascular endothelial growth factor receptor 2 (VEGF-R2) lacking the 50 central residues of the 68 residues of the kinase insert domain was expressed in a baculovirus/insect cell system. Of the 1356 residues of full-length VEGF-R2, VEGF-R2Δ50 contains residues 806-939 and 990-1171, and also one point mutation (E990V) within the kinase insert domain relative to wild-type VEGF-R2. Autophosphorylation of the purified construct was performed by incubation of the enzyme at a concentration of 4 μM in the presence of 3 mM ATP and 40 mM MgCl2 in 100 mM HEPES, pH 7.5, containing 5% glycerol and 5 mM DTT, at 4° C. for 2 h. […] See Parast et al., Biochemistry, 37, 16788-16801 (1998).
The production of ADP from ATP that accompanies phosphoryl transfer was coupled to oxidation of NADH using phosphoenolpyruvate (PEP) and a system having pyruvate kinase (PK) and lactic dehydrogenase (LDH). The oxidation of NADH was monitored by following the decrease of absorbance at 340 nm ([…]=6.22 cm^−1 mM^−1) using a Beckman DU 650 spectrophotometer. Assay conditions for phosphorylated VEGF-R2Δ50 (indicated as FLVK-P in the tables below) were the following: 1 mM PEP; 250 μM NADH; 50 units of LDH/mL; 20 units of PK/mL; 5 mM DTT; […]; 1 mM ATP; and 25 mM MgCl2 in 200 mM HEPES, pH 7.5. Assay conditions for unphosphorylated VEGF-R2Δ50 (indicated as FLVK in the tables) were the following: 1 mM PEP; 250 μM NADH; 50 units of LDH/mL; 20 units of PK/mL; 5 mM DTT; […]; 3 mM ATP; and 60 mM MgCl2 and 2 mM MnCl2 in 200 mM HEPES, pH 7.5. Assays were initiated with 5 to 40 nM of enzyme. Ki values were determined by measuring enzyme activity in the presence of varying concentrations of test compounds. The percent inhibition at 50 nm (% inhibition@ 50 nm) was determined by linear least-squares regression analysis of absorbance as a function of time. The binding inhibitions were fitted to equation as described by Morrison. The data were analyzed using Enzyme Kinetic and Kaleidagraph software.

T1 sequence (P35968 with tags, fused parts or gaps DEL940-989/E990V limits assumed): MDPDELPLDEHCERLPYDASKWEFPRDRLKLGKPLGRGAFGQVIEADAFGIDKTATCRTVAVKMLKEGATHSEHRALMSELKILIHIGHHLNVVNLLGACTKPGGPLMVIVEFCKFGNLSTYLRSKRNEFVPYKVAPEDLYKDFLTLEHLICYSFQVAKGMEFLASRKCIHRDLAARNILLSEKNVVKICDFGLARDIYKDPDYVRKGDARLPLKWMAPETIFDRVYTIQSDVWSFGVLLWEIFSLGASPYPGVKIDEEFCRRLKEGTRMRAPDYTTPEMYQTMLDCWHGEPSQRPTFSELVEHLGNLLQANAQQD

Ki [nM] | inhibition at 0.05 µM [%] | Structure (SMILES)
37.8 | 20 | CCOC(=O)c1cc2ncnc(Nc3ccc4c(c3)cc(C)n4C(=O)NC)c2s1 [Example 11a, 4-(2-Methyl-1-methylcarbamoyl-1H-indol-5-ylamino)-thieno[3,2-b]pyrimidine-6-carboxylic acid ethyl ester]
0.123 | 98 | CNC(=O)n1c(C)cc2cc(Oc3ccnc4cc(C(=O)N5C[C@H](OC)[C@@H](O)C5)sc34)ccc21 [Example 8c]
0.142 | 98 | C#CCNC(=O)n1c(C)c(Cl)c2c(F)c(Oc3ccnc4cc(C(=O)N5CC[C@@H](OC)C5)sc34)ccc21 [Example 6h, 3-Chloro-4-fluoro-5-[2-((R)-3-methoxy-pyrrolidine-1-carbonyl)-thieno[3,2-b]pyridin-7-yloxy]-2-methyl-indole-1-carboxylic acid prop-2-ynylamide]
2.72 | 90 | CCC(=O)n1c(C)cc2cc(Oc3ccnc4cc(C(=O)N5CC[C@H](O)C5)sc34)ccc21 [Example 10b, (3S)-1-({7-[(2-Methyl-1-propionyl-1H-indol-5-yl)oxy]thieno[3,2-b]pyridin-2-yl}carbonyl)pyrrolidin-3-ol]
0.2 | 98 | Cc1cc2cc(Oc3ccnc4cc(C(=O)N5C[C@@H](O)[C@@H](O)C5)sc34)ccc2n1C(=O)NC1CC1 [Example 4u, 5-[2-(3,4-cis-Dihydroxy-pyrrolidine-1-carbonyl)-thieno[3,2-b]pyridin-7-yloxy]-2-methyl-indole-1-carboxylic acid cyclopropylamide]
0.796 | 93 | CNC(=O)n1c(C)cc2cc(Nc3ccnc4cc(C(=O)N5CC(F)[C@H](OC)C5)sc34)ccc21 (stereo partly drawn) [Example 7a, 5-[(2-{[(4R)-3-Fluoro-4-methoxypyrrolidin-1-yl]carbonyl}thieno[3,2-b]pyridin-7-yl)amino]-N,2-dimethyl-1H-indole-1-carboxamide]
0.142 | 99 | CNC(=O)n1c(C)cc2cc(Oc3ccnc4cc(C(=O)N5CC(F)[C@@H](OC)C5)sc34)ccc21 (stereo partly drawn) [Example 8j, 5-[(2-{[(4S)-3-Fluoro-4-methoxypyrrolidin-1-yl]carbonyl}thieno[3,2-b]pyridin-7-yl)oxy]-N,2-dimethyl-1H-indole-1-carboxamide]
0.085 | 98 | CNC(=O)n1c(C)cc2cc(Oc3ccnc4cc(C(=O)N5C[C@@H](O)[C@@H](O)C5)sc34)ccc21 [Example 4s, 5-[2-(3,4-cis-Dihydroxy-pyrrolidine-1-carbonyl)-thieno[3,2-b]pyridin-7-yloxy]-2-methyl-indole-1-carboxylic acid methylamide]
0.35 | 99 | CCCNC(=O)n1c(C)cc2cc(Oc3ccnc4cc(C(=O)N5C[C@H](O)[C@@H](O)C5)sc34)ccc21 [Example 8f, 5-[(2-{[(3S,4S)-3,4-Dihydroxypyrrolidin-1-yl]carbonyl}thieno[3,2-b]pyridin-7-yl)oxy]-2-methyl-N-propyl-1H-indole-1-carboxamide]
0.586 | 98 | CNC(=O)n1c(C)cc2c(F)c(Oc3ccnc4cc(C(=O)N5CC[C@@H](O)C5)sc34)ccc21 [Example 5m, 4-Fluoro-5-[2-(3R-hydroxy-pyrrolidine-1-carbonyl)-thieno[3,2-b]pyridin-7-yloxy]-2-methyl-indole-1-carboxylic acid methylamide]
0.115 | 98 | CCCNC(=O)n1c(C)cc2cc(Oc3ccnc4cc(C(=O)N5C[C@H](OC)[C@@H](OC)C5)sc34)ccc21 [Example 8e, 5-[(2-{[(3S,4S)-3,4-dimethoxypyrrolidin-1-yl]carbonyl}thieno[3,2-b]pyridin-7-yl)oxy]-2-methyl-N-propyl-1H-indole-1-carboxamide]
0.701 | 96 | CNC(=O)n1c(C)cc2cc(Oc3ccnc4cc(C(=O)N5C[C@H](OC)[C@H](OC)C5)sc34)ccc21 [Example 4r, 5-[2-(3,4-cis-Dimethoxy-pyrrolidine-1-carbonyl)-thieno[3,2-b]pyridin-7-yloxy]-2-methyl-indole-1-carboxylic acid methylamide]
0.154 | 98 | Cc1c(Cl)c2c(F)c(Oc3ccnc4cc(C(=O)N5CC[C@H](O)C5)sc34)ccc2n1C(=O)NC1CC1 [Example 6f, 3-Chloro-4-fluoro-5-[2-(3S-hydroxy-pyrrolidine-1-carbonyl)-thieno[3,2-b]pyridin-7-yloxy]-2-methyl-indole-1-carboxylic acid cyclopropyl-amide]
0.172 | 99 | C#CCNC(=O)n1c(C)cc2cc(Oc3ccnc4cc(C(=O)N5C[C@@H](O)[C@@H](O)C5)sc34)ccc21 [Example 4w, 5-[2-(3,4-cis-Dihydroxy-pyrrolidine-1-carbonyl)-thieno[3,2-b]pyridin-7-yloxy]-2-methyl-indole-1-carboxylic acid prop-2-ynylamide]
0.388 | 100 | Cc1cc2c(F)c(Oc3ccnc4cc(C(=O)N5CC[C@H](O)C5)sc34)ccc2n1C(=O)NC1CC1 [Example 5j, 4-Fluoro-5-[2-(3S-hydroxy-pyrrolidine-1-carbonyl)-thieno[3,2-b]pyridin-7-yloxy]-2-methyl-indole-1-carboxylic acid cyclopropylamide]
0.416 | 99 | C#CCNC(=O)n1c(C)cc2cc(Oc3ccnc4cc(C(=O)N5C[C@H](OC)[C@H](OC)C5)sc34)ccc21 [Example 4v, 5-[2-(3,4-cis-Dimethoxy-pyrrolidine-1-carbonyl)-thieno[3,2-b]pyridin-7-yloxy]-2-methyl-indole-1-carboxylic acid prop-2-ynylamide]
0.521 | 89 | CO[C@H]1CCN(C(=O)c2cc3nccc(Oc4ccc5c(c4)cc(C)n5C(=O)NCCCCO)c3s2)C1 [Example 9a, 5-[2-(3S-Methoxy-pyrrolidine-1-carbonyl)-thieno[3,2-b]pyridin-7-yloxy]-2-methyl-indole-1-carboxylic acid (4-hydroxy-butyl)-amide]
0.189 | 99 | CNC(=O)n1c(C)cc2c(F)c(Oc3ccnc4cc(C(=O)N5CC[C@@H](OC)C5)sc34)ccc21 [Example 5l, 4-Fluoro-5-[2-(3R-methoxy-pyrrolidine-1-carbonyl)-thieno[3,2-b]pyridin-7-yloxy]-2-methyl-indole-1-carboxylic acid methylamide]
0.279 | 99 | CNC(=O)n1c(C)c(Cl)c2c(F)c(Oc3ccnc4cc(C(=O)N5CC[C@H](O)C5)sc34)ccc21 [Example 6e, 3-Chloro-4-fluoro-5-[2-(3S-hydroxy-pyrrolidine-1-carbonyl)-thieno[3,2-b]pyridin-7-yloxy]-2-methyl-indole-1-carboxylic acid methylamide]
28.8 | 18 | CNC(=O)n1c(C)cc2cc(Nc3ncnc4cc(C(=O)N5CCC[C@H]5COC)sc34)ccc21 [Example 11b, 5-[6-(2-Methoxymethyl-pyrrolidine-1-carbonyl)-thieno[3,2-b]pyrimidin-4-ylamino]-2-methyl-indole-1-carboxylic acid methylamide]
100 | 1 | CNC(=O)c1c(C)[nH]c2ccc(Oc3ccnc4cc(C(=O)N5CCC[C@@H]5COC)sc34)cc12 [Example 4x, 5-[2-(2R-Methoxymethyl-pyrrolidine-1-carbonyl)-thieno[3,2-b]pyridin-7-yloxy]-2-methyl-1H-indole-3-carboxylic acid methylamide]
1.23 | 97 | CNC(=O)n1c(C)c(Cl)c2c(F)c(Oc3ccnc4cc(C(=O)N5CC[C@@H](OC)C5)sc34)ccc21 [Example 6g, 3-Chloro-4-fluoro-5-[2-(3R-methoxy-pyrrolidine-1-carbonyl)-thieno[3,2-b]pyridin-7-yloxy]-2-methyl-indole-1-carboxylic acid methylamide]
240 | 0 | CCOC(=O)c1cc2c(Nc3ccc4c(c3)cc(C)n4C(=O)NC)ncnc2s1 [Example 12a, 4-(2-Methyl-1-methylcarbamoyl-1H-indol-5-ylamino)-thieno[2,3-b]pyrimidine-6-carboxylic acid ethyl ester]
